Experimental data as given in article PMC4679366 (European journal of medicinal chemistry, 2014).
Like-named read-outs stand apart in the source and are kept apart here.

How the values were obtained:
HepG2 liver cells = assay: HepG2 toxicity assay; assay type: cell-based; conditions: Homo sapiens, HepG2, read-out: HepG2 IC50
P. falciparum 3D7 [1] = conditions: read-out: Pf 3D7 IC50, asexual blood stages; cited from earlier work
P. falciparum = conditions: read-out: P. falciparum IC50; cited from earlier work
human HDAC4 = conditions: cited from earlier work
human HDAC5 = conditions: cited from earlier work
[2] = system: P. berghei exo-erythrocytic forms (EEF); assay: Pb liver stage assay; assay type: cell-based; conditions: Plasmodium berghei, 48 h, read-out: Pb EEF IC50, P. berghei exo-erythrocytic forms in HepG2-A16-CD81EGFP cells, 48 h
[3] = system: P. falciparum NF54 late stage gametocytes (IV–V); assay: Late stage P. falciparum; assay type: cell-based; conditions: Plasmodium falciparum, NF54, HN12, 72 h, read-out: Pf LSG IC50
P. falciparum 3D7 [4] = assay: Asexual stage in vitro antimalarial assay, [3H]-hypoxanthine incorporation; assay type: cell-based; conditions: Plasmodium falciparum, 3D7, read-out: Pf 3D7 IC50
P. falciparum histone H4 = assay: Histone hyperacetylation assay; assay type: cell-based, Plasmodium falciparum; conditions: 500 nM, 3 h, trophozoite-stage 3D7, Western blot anti-acetyl H4
P. falciparum histone H3 = assay: Histone hyperacetylation assay; assay type: cell-based, Plasmodium falciparum; conditions: 500 nM, 3 h, trophozoite-stage 3D7, Western blot anti-acetyl H3

O=C1C(O)=C([C@H]2CC[C@H](c3ccc(Cl)cc3)CC2)C(=O)c2ccccc21 [Atovaquone] gave an IC50 (HepG2 liver cells) greater than 10000 nM.

In the case of O=C(CCCCCCC(=O)Nc1ccccc1)NO [SAHA, suberoylanilide hydroxamic acid], the IC50 (P. falciparum 3D7 [1]) is listed as 130 nM.

For CCCCc1nc2cc(/C=C/C(=O)NO)ccc2n1CCN(CC)CC [SB939], the IC50 (P. falciparum) is listed as 80 to 150 nM.

For Cc1cc(C)cc(C(=O)NOCCCCCC(=O)NO)c1 [Compound 1a], the “human HDAC4 IC50” value (human HDAC4) is listed as “low nanomolar” and the “human HDAC5 IC50” value (human HDAC5) is listed as “low nanomolar”.

For O=C(/C=C/c1ccccc1)N[C@@H](CCCCCC(=O)NO)C(=O)Nc1cccc2cccnc12 [Compound 2-ASA-9], the IC50 (P. falciparum) is listed as 15 to 39 nM.

For Nc1cccc(-c2csc(NC(=O)CCCCCCC(=O)NO)n2)c1 [WR301801 (YC-II-88)], the IC50 (P. falciparum) is given as 0.6 to 1.8 nM.

Compound CCCOc1ccc(C(=O)NOCCCCCC(=O)NO)cc1 [Compound 1m, N-((6-(Hydroxyamino)-6-oxohexyl)oxy)-4-propoxybenzamide] has an IC50 [2] greater than 5000 nM.

Compound CCCCCOc1ccc(C(=O)NOCCCCCC(=O)NO)cc1 [Compound 1n, N-((6-(Hydroxyamino)-6-oxohexyl)oxy)-4-(pentyloxy)benzamide] has an IC50 [2] greater than 5000 nM.

Work on CCN(CC)CCCC(C)Nc1ccnc2cc(Cl)ccc12 (stereo not drawn) [Chloroquine] yielded an IC50 [3] greater than 120000 nM and an IC50 (P. falciparum 3D7 [4]) of 10 nM.

In the case of CCCCCCOc1ccc(C(=O)NOCCCCCC(=O)NO)cc1 [Compound 1s, 4-(Hexyloxy)-N-((6-(hydroxyamino)-6-oxohexyl)oxy)benzamide], the IC50 [2] is reported as greater than 5000 nM.

For CC(/C=C/C(=O)NO)=C\[C@@H](C)C(=O)c1ccc(N(C)C)cc1 [TSA, Trichostatin A], the IC50 (P. falciparum) is listed as 8 to 11 nM and the “hyperacetylation of P. falciparum histone H4” value (P. falciparum histone H4) is listed as “caused hyperacetylation”.

In the case of Cc1ccc(C(=O)NOCCCCCC(=O)NO)cc1C [Compound 1b], the “hyperacetylation of P. falciparum histone H3” value (P. falciparum histone H3) is reported as “to a lesser extent”.
